Experimental data as given in article PMC5634478, “Usefulness of kidney slices for functional analysis of apical reabsorptive transporters” (Scientific Reports, 2017).
Read-outs that look alike come from different tables or passages of the source. Blank lines part the entries; values can stand above or below the molecule they belong to. Where a SMILES comes first, the peptide text is derived from it.

Key:
Mate1 = conditions: read-out: IC 50 for Mate1; cited from earlier work
Oct2 = conditions: read-out: IC 50 for Oct2; cited from earlier work
Octn1 = target: T1, Octn1 (Mus musculus, UniProt Q9Z306); experiment: Uptake of [3H]ergothioneine by mice kidney slices; format: in vitro ADME; conditions: for inhibition of [3H]ergothioneine uptake by kidney slices at low inhibitor concentration: 0.5 mM carnitine, 0.1 mM cimetidine; for effect on Na+-dependent uptake of [3H]ergothioneine into mice kidney slices: Fig. 3A
T1 construct: between native Octn1 in kidney tissues and transporter-gene transfected cells; from tissue; host or cells: mouse kidney slices (0.3 mm; male ICR mice, or C57BL/6J-backcrossed wild-type and Octn1-/- mice)
T1 sequence (Q9Z306 1-553): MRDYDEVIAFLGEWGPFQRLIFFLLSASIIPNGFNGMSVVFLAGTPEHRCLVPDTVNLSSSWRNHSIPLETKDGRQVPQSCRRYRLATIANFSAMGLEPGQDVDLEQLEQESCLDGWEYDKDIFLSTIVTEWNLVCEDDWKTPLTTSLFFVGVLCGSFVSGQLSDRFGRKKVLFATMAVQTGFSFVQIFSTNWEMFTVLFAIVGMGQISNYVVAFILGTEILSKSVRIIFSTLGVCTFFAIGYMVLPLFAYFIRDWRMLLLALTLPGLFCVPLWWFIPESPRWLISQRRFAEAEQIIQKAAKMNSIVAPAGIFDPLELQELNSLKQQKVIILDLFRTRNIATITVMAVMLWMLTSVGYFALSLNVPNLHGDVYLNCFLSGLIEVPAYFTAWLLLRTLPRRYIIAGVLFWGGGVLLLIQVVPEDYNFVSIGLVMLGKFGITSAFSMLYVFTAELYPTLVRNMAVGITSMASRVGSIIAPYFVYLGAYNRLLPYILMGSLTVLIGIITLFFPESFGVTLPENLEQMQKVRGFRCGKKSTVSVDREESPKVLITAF
Experimental: (§1) Uptake studies using mouse kidney slices were carried out as described in a previous report after slight modifications. The slices of whole kidneys were prepared with a microslicer (Zero 1; Dosaka EM, Kyoto, Japan), and the renal pelvis portion was removed. Prepared slices (0.3 mm thick) of whole kidneys from male mice were immediately put in ice-cold oxygenated transport buffer (130 mM NaCl, 4.8 mM KCl, 1.2 mM CaCl2, 1.2 mM MgSO4, 1.2 mM KH2PO4 and 25 mM HEPES, adjusted to pH 7.4). When uptake was conducted in Na^+-free condition, NaCl was replaced with N-methyl-D-glucamine (NMG) in transport buffer. Three or four slices from one mouse, weighing each slice 2 to 10 mg, were randomly selected and then pre-incubated in a 24-well plate with 1.0 ml of oxygenated transport buffer in each well at 37 °C for 5 min. After pre-incubation, the kidney slices were put into transport buffer containing radiolabeled substrates with or without inhibitors to initiate the uptake reaction. The uptake reactions were carried out at 37 °C for an appropriate time, and then each slice was rapidly removed from the transport buffer, washed twice in ice-cold transport buffer, blotted on filter paper and weighed. For measurement of radiolabeled compounds, the slices were dissolved in 0.15 ml of 1 N NaOH. Then, the lysate was neutralized with HCl. The apparent uptake of [^14C]inulin was evaluated in independent experiments (n = 3) to estimate the volume of water adhering to the kidney slices after an incubation. […] Viability of the isolated kidney slices was assessed as described in the supplemental file.
Radioactivity was quantified with a liquid scintillation counter (Aloka, Tokyo, Japan). To calculate kinetic parameters for carrier-mediated uptake of test substrates, uptake rate was fitted to eq. (1) by means of a nonlinear least-squares regression analysis using MULTI program[36]:1 v=Vmax×s/(Km+s) where v, s, K m, and V max are the uptake rate of substrate, the substrate concentration in the medium, the apparent Michaelis-Menten constant, and the maximal uptake rate, respectively.
(§2) The half-inhibitory concentration (IC 50) values of inhibitors were obtained by examining their inhibitory effects on uptake of test substrates according to the following equation (2):2 %ofcontrol=IC50/(IC50+I) where % of control represents inhibition rate in the presence of inhibitors and I is inhibitor concentration.

Mouse Octn1 = Mouse Octn1 (Mus musculus, UniProt Q9Z306); conditions: Octn1-expressing HEK293 cells, previous report, cited from earlier work
Pept1/2 = experiment: Uptake of [3H]Gly-Sar by mice kidney slices; format: in vitro ADME; conditions: for effect on uptake of [3H]Gly-Sar by mice kidney slices: 5 mM Gly-Leu, 100 μM cephadroxil, 37 °C
Experimental: Uptake studies using mouse kidney slices were carried out as described in a previous report after slight modifications. The slices of whole kidneys were prepared with a microslicer (Zero 1; Dosaka EM, Kyoto, Japan), and the renal pelvis portion was removed. Prepared slices (0.3 mm thick) of whole kidneys from male mice were immediately put in ice-cold oxygenated transport buffer (130 mM NaCl, 4.8 mM KCl, 1.2 mM CaCl2, 1.2 mM MgSO4, 1.2 mM KH2PO4 and 25 mM HEPES, adjusted to pH 7.4). When uptake was conducted in Na^+-free condition, NaCl was replaced with N-methyl-D-glucamine (NMG) in transport buffer. Three or four slices from one mouse, weighing each slice 2 to 10 mg, were randomly selected and then pre-incubated in a 24-well plate with 1.0 ml of oxygenated transport buffer in each well at 37 °C for 5 min. After pre-incubation, the kidney slices were put into transport buffer containing radiolabeled substrates with or without inhibitors to initiate the uptake reaction. The uptake reactions were carried out at 37 °C for an appropriate time, and then each slice was rapidly removed from the transport buffer, washed twice in ice-cold transport buffer, blotted on filter paper and weighed. For measurement of radiolabeled compounds, the slices were dissolved in 0.15 ml of 1 N NaOH. Then, the lysate was neutralized with HCl. The apparent uptake of [^14C]inulin was evaluated in independent experiments (n = 3) to estimate the volume of water adhering to the kidney slices after an incubation. In this study, observed extracellular adhered water space was 0.128 ± 0.004 μL/5 min/mg kidney. Viability of the isolated kidney slices was assessed as described in the supplemental file.
Radioactivity was quantified with a liquid scintillation counter (Aloka, Tokyo, Japan). To calculate kinetic parameters for carrier-mediated uptake of test substrates, uptake rate was fitted to eq. […]

PEPT1 = system: PEPT1; parameters: method as in PMID 11004485; conditions: cited from earlier work
PEPT2 = system: PEPT2; parameters: method as in PMID 15862787; conditions: cited from earlier work
Sglt2 = system: Sglt2; parameters: method as in PMID 22139434; conditions: cited from earlier work
Octn2 = target: T2, Octn2 (Mus musculus, UniProt Q9Z0E8); experiment: Uptake of [3H]carnitine by mice kidney slices; format: in vitro ADME
T2 construct: from tissue; host or cells: mouse kidney slices (male ICR mice)
T2 sequence (Q9Z0E8 1-557): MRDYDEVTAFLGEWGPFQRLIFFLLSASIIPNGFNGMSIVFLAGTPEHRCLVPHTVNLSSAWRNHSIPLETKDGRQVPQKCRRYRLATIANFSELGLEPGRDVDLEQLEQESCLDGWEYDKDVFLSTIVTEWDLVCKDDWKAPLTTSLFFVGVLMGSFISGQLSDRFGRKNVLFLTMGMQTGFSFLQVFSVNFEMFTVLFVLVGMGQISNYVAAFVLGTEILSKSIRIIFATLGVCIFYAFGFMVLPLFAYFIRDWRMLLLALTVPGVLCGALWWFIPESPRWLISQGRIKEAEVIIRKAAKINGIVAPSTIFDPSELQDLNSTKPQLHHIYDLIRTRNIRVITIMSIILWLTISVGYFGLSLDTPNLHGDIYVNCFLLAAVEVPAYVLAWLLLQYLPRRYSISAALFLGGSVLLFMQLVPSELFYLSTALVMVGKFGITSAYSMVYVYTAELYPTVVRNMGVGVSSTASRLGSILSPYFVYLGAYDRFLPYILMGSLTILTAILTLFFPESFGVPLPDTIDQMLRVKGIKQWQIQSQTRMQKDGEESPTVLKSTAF
Experimental: as §1, with “The uptake reactions were carried out at 37 °C for an appropriate time, and then each slice was rapidly removed from the transport buffer, washed twice in ice-cold transport buffer, blotted on filter paper and weighed. For measurement of radiolabeled compounds, the slices were dissolved in 0.15 ml of 1 N NaOH. Then, the lysate was neutralized with HCl.” left out, “file. […]” for “file.”

Mouse Octn2 [1] = target: T3, Mouse Octn2 (Mus musculus, UniProt Q9Z0E8); experiment: Uptake of [3H]carnitine by Octn2-expressing HEK293 cells; format: cell-based; conditions: [3H]carnitine 1.0 μM, 15 sec, mock subtracted, read-out: IC 50 for carnitine uptake, Expression Model
T3 construct: expressed in transfected cells; host or cells: HEK293
T3 sequence (Q9Z0E8 1-557): T2 sequence (Q9Z0E8 1-557)

Mouse Octn2 [2] = target: T3, Mouse Octn2; parameters: method as in PMID 11010964; conditions: cited from earlier work
Sglt1/2 = experiment: Uptake of [14C]αMG by mice kidney slices; format: in vitro ADME; conditions: for effect on [14C]αMG uptake by kidney slices, inhibitor alone: 30 mM galactose, D-glucose free
Experimental: as §1, §2

[3] = [3H]ergothioneine 1.0 μM, 3 min

inhibition of [3H]ergothioneine uptake by kidney slices at low inhibitor concentration (Octn1): no significant inhibition
effect on Na+-dependent uptake of [3H]ergothioneine into mice kidney slices (Octn1; [3]): significantly reduced
SMILES: CN/C(=N/CCSCc1nc[nH]c1C)NC#N [Cimetidine]
IC50 (Mate1): 16.3 µM
IC50 (Oct2): 8 µM

K m in kidney slices relative to K m in Octn1-expressing HEK293 cells (Octn1; 81.5 μM versus 4.68 μM): 17 times
uptake in the presence of Na+ versus absence of Na+ (Octn1; [3H]ergothioneine 1.0 μM, pH 7.4, 37 °C, 1-20 min): significantly higher
K m of ergothioneine uptake, Mice Kidney Slice (Octn1; pH 7.4, 37 °C, 3 min, 1-250 μM): 69.8 ± 27.6 µM
SMILES: C[N+](C)(C)[C@@H](Cc1c[nH]c(=S)[nH]1)C(=O)[O-] [Ergothioneine, ergothioneine]
K m of ergothioneine, Expression Model (Mouse Octn1): 4.68[22] µM
K m of ergothioneine, Expression Model (Mouse Octn1; listed as ergothioneine): 4.68 µM
uptake of [3H]ergothioneine in 1 hr after removal of kidney compared with 25 min (Octn1; slice viability, pre-incubation pH 7.4, 37 °C): 69.0 ± 6.6%

SMILES: CC(C)CC(NC(=O)CN)C(=O)O (stereo not shown) [Gly-Leu, glycyl-leucine]
effect on uptake of [3H]Gly-Sar by mice kidney slices (Pept1/2): decreased

SMILES: CN(CC(=O)O)C(=O)CN [Gly-Sar, glycylsarcosine] (HELM PEPTIDE1{G.[Sar]}$$$$V2.0)
K m of Gly-Sar, Expression Model (PEPT1) (PEPT1): 600 (PEPT1)[37] µM
K m of Gly-Sar, Expression Model (PEPT2) (PEPT2): 79.5 (PEPT2)[31] µM
K m of Gly-Sar, Expression Model (PEPT2) (PEPT2; listed as [^3H]Gly-Sar): 79.5 µM
K m of Gly-Sar uptake, Mice Kidney Slice (Pept1/2; pH 7.4, 37 °C, 5 min, 10-300 μM): 161 ± 17 µM

IC50 (Octn2): 363 ± 142 µM
IC50 (Mouse Octn2 [1]): 94.1 ± 8.9 µM
SMILES: COc1ccc(CCN(C)CCCC(C#N)(c2ccc(OC)c(OC)c2)C(C)C)cc1OC (stereo not shown) [Verapamil]

uptake in the presence of Na+ versus absence of Na+ (Octn2; [3H]carnitine 1.3 nM, pH 7.4, 37 °C, 1-20 min): significantly higher
inhibition of [3H]ergothioneine uptake by kidney slices at low inhibitor concentration (Octn1): no significant inhibition
effect on Na+-dependent uptake of [3H]ergothioneine into mice kidney slices (Octn1; [3]): significantly reduced
SMILES: C[N+](C)(C)CC(O)CC(=O)[O-] (stereo not shown) [carnitine]
K m value of carnitine for Octn2 (Mouse Octn2 [2]): 22.1 µM

SMILES: CC1=C(C(=O)O)N2C(=O)[C@@H](NC(=O)[C@H](N)c3ccc(O)cc3)[C@H]2SC1 [cephadroxil]
effect on uptake of [3H]Gly-Sar by mice kidney slices (Pept1/2): decreased

SMILES: CCOc1ccc(Cc2cc([C@@H]3O[C@H](CO)[C@@H](O)[C@H](O)[C@H]3O)ccc2Cl)cc1 [dapagliflozin]
effect on [14C]αMG uptake with 30 mM galactose or 1 mM D-glucose simultaneously added (Sglt1/2; 50 nM dapagliflozin, 5 min): decreased
effect on αMG uptake in the presence of 10 mM D-glucose (Sglt1/2; 10 mM D-glucose, Sglt1 and Sglt2 saturated): no further decrease
effect on [14C]αMG uptake by kidney slices, inhibitor alone (Sglt1/2; 50 nM dapagliflozin, 5 min): not affected

SMILES: O=C[C@H](O)[C@@H](O)[C@@H](O)[C@H](O)CO [galactose, D-galactose]
effect on [14C]αMG uptake by kidney slices, inhibitor alone (Sglt1/2; 50 nM dapagliflozin, 5 min): decreased
